Test [1] can be described thus: Ratio of Kinact value to that of Ki value.
The target in test [2] is T1, Adenosylhomocysteinase (Homo sapiens, UniProt P23526). The test can be described thus: The kinetic constant for inhibition of S-adenosyl-homocysteine hydrolase obtained from human placenta by the compound.
Target sequence in this assay (P23526 2-432 limits assumed): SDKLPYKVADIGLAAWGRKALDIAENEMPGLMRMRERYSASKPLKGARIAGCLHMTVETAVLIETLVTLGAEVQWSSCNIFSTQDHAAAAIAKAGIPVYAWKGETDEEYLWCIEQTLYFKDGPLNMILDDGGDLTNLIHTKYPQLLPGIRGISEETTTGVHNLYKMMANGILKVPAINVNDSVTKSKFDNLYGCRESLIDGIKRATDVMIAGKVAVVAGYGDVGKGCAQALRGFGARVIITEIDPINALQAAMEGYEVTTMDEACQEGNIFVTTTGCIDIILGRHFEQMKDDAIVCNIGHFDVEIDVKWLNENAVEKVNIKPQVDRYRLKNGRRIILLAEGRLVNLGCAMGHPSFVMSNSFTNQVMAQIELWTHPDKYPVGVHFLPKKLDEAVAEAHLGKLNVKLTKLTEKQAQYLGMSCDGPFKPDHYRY
The target in test [3] is T1, Adenosylhomocysteinase. The test can be described thus: The kinetic constant for inhibition of S-adenosyl-homocysteine hydrolase by the compound.
Target sequence in this assay (P23526 whole entry): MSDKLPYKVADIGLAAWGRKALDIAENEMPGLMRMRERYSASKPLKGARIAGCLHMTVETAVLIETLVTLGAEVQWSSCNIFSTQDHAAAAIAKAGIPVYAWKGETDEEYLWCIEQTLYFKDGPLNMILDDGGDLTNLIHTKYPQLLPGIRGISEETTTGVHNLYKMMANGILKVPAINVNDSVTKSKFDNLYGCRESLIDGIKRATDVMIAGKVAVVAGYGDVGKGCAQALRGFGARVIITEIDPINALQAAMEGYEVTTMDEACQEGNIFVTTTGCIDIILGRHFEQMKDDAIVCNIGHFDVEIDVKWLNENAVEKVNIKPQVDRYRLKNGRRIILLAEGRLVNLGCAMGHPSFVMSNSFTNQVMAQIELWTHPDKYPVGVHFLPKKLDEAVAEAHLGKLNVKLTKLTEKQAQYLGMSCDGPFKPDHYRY

For orientation: Ki means the dissociation constant of the complex between target and ligand, obtained from inhibition or displacement. A higher Ki goes with weaker binding. As to `Nc1ncnc2c1ncn2C1O[C@H](/C(Br)=C\Br)[C@@H](O)[C@H]1O` (some centres undefined), in test [1], the K inact/Ki was determined as 375 M⁻¹ s⁻¹. The compound further had a K inact at Adenosylhomocysteinase [2] of 0.081 min⁻¹. Besides, on Adenosylhomocysteinase [3], the Ki was found to be 3.6 µM.

As for `Nc1ncnc2c1ncn2C1O[C@H](/C=C(/F)Br)[C@@H](O)[C@H]1O` (some centres undefined), the K inact/Ki in test [1] came to 170 M⁻¹ s⁻¹. Further, the K inact at Adenosylhomocysteinase [2] is 0.04 min⁻¹. Besides, at Adenosylhomocysteinase [3], the affinity, expressed as Ki, was 3.9 µM.

For the compound `Nc1ncnc2c1ncn2C1O[C@H](C=C(Br)Br)[C@@H](O)[C@H]1O` (some centres undefined), the K inact/Ki in test [1] was 193 M⁻¹ s⁻¹. The K inact on Adenosylhomocysteinase [2] turned out to be 0.036 min⁻¹. For the same compound, at Adenosylhomocysteinase [3], the affinity, expressed as Ki, was 3.1 µM.

For the origin of these results see ChEMBL document CHEMBL1131055, “Discovery of type II (covalent) inactivation of S-adenosyl-L-homocysteine hydrolase involving its "hydrolytic activity": synthesis and evaluation of dihalohomovinyl nucleoside analogues derived from adenosine” (J Med Chem, 1998).
